# Measured values as given in US20240391978A1, “APOLIPOPROTEIN FUSION PROTEINS FOR CELL-SPECIFIC IMMUNE REGULATION” (BIO-TRIP B.V., priority 2021, published 2024).
# How the values were obtained:
# Macrophages [1] = experiment: Macrophage surface marker flow cytometry; type: cell-based, human; conditions: data not shown
# Excerpt: Primary monocyte-derived dendritic cell (moDC) generation: For experiments were moDCs were compared to macrophages (untrained control or IL4-trained), moDCs were differentiated as follows. First, negatively selected monocytes were obtained as described above. […] The cells were differentiated until day 6, with one medium refresh on day 3. On day 6, the non-adherent cells were harvested in addition to the adherent cells (as described above). The moDCs and macrophages were then subjected to analysis by flow cytometry as described below.
# Macrophage surface marker flow cytometry: Macrophages were harvested as described above and transferred to a v-bottom 96 well plate for staining. The cells were centrifuged at 1500 rpm, 5 minutes, 4° C. The supernatant was removed, and the cells were washed once with 200 μl PBA (PBS pH 7.4, 1% w/v BSA (Sigma)).
# Fc-receptors were blocked by incubation in PBS supplemented with 10% human pooled serum for 15 minutes at 4° C. After washing once more, surface markers and viability were stained for in a volume of 50 μl for 30 minutes at 4° C., using the antibodies and viability dye described in table 3.
# Following two washes, the cells were resuspended in 150 μl PEA and measured on a Cytoflex flow cytometer (Eeckman Coulter) or ED FACSVerse system (ED Eiosciences). Compensation was performed using VersaComp compensation beads (Eeckman Coulter) for single antibody stains; a mixture of live and heat-killed cells was used for single stains of the viability dye (as per the manufacturer's recommendations). Data analysis was performed in Flowjo (v10.7.1, ED Eiosciences) Our gating strategy was as follows: first, a time gate was used if necessary. Then, single cell events were selected using subsequent FSC-A/SSC-A and FSC-A/FSC-H gates. Dead cells were removed from the analysis by selecting the viability dye-negative population. Geometric mean fluorescence intensities were calculated as a measure of surface marker expression.
# Macrophages [2] = experiment: Seahorse metabolic analyses of IL4-trained cells; type: cell-based, human; conditions: IL4 training on day 0, measured on day 6
# Method: Seahorse metabolic analyses: Macrophages were harvested as described above. The cells were resuspended in RPMI+++ and seeded into overnight-calibrated cartridges at 10^5 cells per well. After adhering for 1 hour, the medium was changed to assay medium (Agilent; see below) and the cells were incubated for 1 hour at 37° C. in ambient C02 levels. Oxygen consumption rates (OCR) and extracellular acidification rates (ECAR) were measured as proxies for glycolytic and […] metabolism, using a Seahorse XF Glycolysis Stress Test kit or a Seahorse XF Cell Mito Stress Test kit (both Agilent; measurements performed according to manufacturer's instructions).
# primary human monocytes = experiment: In vitro inflammation inhibition, LPS-stimulated monocytes; type: cell-based
# Method: For pharmacological inhibition experiments, the monocytes were pre-incubated for 1 hour with one of the inhibitors described in Table 2 before addition of the training stimulus.
# In vitro inflammation inhibition: Monocytes were adhered to a flat-bottom cell culture plate for 1 hour and washed with warm PBS to remove any non-adherent cells and cell debris. […] Following the initial 24-hour stimulation, the supernatants were collected and stored at −20° C. until further analysis with ELISA for IL6 and TNF.
# Cytokine and lactate measurements: TNF, IL6, and IL1Ra were measured in cell culture supernatants using duoset ELISA kits (R&D systems), according to the manufacturer's instructions. For lactate measurements, a fluorometric assay was used. 30 μl sample, medium control, or known standard was added to a black 96-well plate. Then, 30 μl reaction mix (PBS pH 7.4, horse radish peroxidase (0.2 U/ml), lactate oxidase (2 U/ml), Amplex red (100 μM; Fisher scientific)) was added and the reaction was incubated for 20 minutes in the dark at RT. Immediately thereafter, fluorescence was measured at 530/25 nm and 590/35 nm. Gen5 software (v3.03, BioTek) was used in conjunction with Microsoft Excel to calculate cytokine and lactate concentrations in the original samples.
# Macrophages [3] = experiment: Phagocytosis assay; type: cell-based, human; conditions: IL4-trained cells vs untrained controls; data not shown
# Method: Phagocytosis assay: Macrophages were harvested as described above and incubated at 37° C. for 1 hour with FITC-labeled Candida albicans (kindly provided by Dr. Martin Jaeger, Radboudumc) at an MOI of 1:5. The cells were washed 2 times with ice-cold PBA and kept on ice to halt the phagocytosis. The cells were stained for CD45 (table 3) during 30 minutes in the dark at 4° C. Following two washes, trypan blue was added to a final concentration of 0.01% to quench extracellular FITC-Candida. The cells were then acquired on a Cytoflex flow cytometer.
# During data analysis, CD45+ events were first selected to remove Candida-only events. Single cells were then gated on as described above and the percentage of Candida-FITC positive macrophages in each sample was calculated.
# [4] = Percoll-enriched monocytes, LPS 24 hours, IL4 25 ng/mL
substance,measurement,setting,value
IL4: recombinant human interleukin 4,CD1c expression,Macrophages [1]; IL4-trained cells vs untrained cells and moDCs,"slightly more CD1c than untrained cells, but far less than moDCs"
same,CD14 expression,"Macrophages [1]; IL4 training, day 6",strong downregulation
same,CD80 expression,"Macrophages [1]; IL4 training, day 6",marginally increased
same,CD200R expression,"Macrophages [1]; IL4 training, day 6",significantly enhanced
same,CD206 expression,"Macrophages [1]; IL4 training, day 6",significantly enhanced
same,FCCP-triggered maximum respiration rate,Macrophages [2],significantly augmented
same,basal glycolysis,Macrophages [2],trend towards higher basal glycolysis
same,baseline respiration rate,Macrophages [2],significantly augmented
same,oligomycin-triggered maximum glycolytic capacity,Macrophages [2],significant increase
same,secretion of IL6,primary human monocytes; [4],potently inhibited
same,secretion of IL-1Ra,primary human monocytes; [4],secreted significantly more IL-1Ra compared to controls
same,secretion of TNF,primary human monocytes; [4],potently inhibited
same,baseline lactate production,"primary human monocytes; otherwise unstimulated monocytes vs medium control, data not shown","slightly, but significantly, lower baseline lactate production"
same,phagocytosis of heat-killed Candida albicans,Macrophages [3],slightly less effective at phagocytosing heat-killed Candida albicans than untrained controls
